In ChEMBL document CHEMBL4130348, “Structure-activity relationship investigation for benzonaphthyridinone derivatives as novel potent Bruton's tyrosine kinase (BTK) irreversible inhibitors” (Eur J Med Chem, 2017):

Assays:
[1] = target: T1, Tyrosine-protein kinase JAK3 (Homo sapiens, UniProt P52333); assay: Inhibition of recombinant GST-tagged human JAK3 expressed in baculovirus expression system using poly (4:1 Glu, Tyr) as substrate preincubated for 1 hr followed by substrate addition measured after 1 hr by ADP-glo assay
T1 sequence (P52333 whole entry): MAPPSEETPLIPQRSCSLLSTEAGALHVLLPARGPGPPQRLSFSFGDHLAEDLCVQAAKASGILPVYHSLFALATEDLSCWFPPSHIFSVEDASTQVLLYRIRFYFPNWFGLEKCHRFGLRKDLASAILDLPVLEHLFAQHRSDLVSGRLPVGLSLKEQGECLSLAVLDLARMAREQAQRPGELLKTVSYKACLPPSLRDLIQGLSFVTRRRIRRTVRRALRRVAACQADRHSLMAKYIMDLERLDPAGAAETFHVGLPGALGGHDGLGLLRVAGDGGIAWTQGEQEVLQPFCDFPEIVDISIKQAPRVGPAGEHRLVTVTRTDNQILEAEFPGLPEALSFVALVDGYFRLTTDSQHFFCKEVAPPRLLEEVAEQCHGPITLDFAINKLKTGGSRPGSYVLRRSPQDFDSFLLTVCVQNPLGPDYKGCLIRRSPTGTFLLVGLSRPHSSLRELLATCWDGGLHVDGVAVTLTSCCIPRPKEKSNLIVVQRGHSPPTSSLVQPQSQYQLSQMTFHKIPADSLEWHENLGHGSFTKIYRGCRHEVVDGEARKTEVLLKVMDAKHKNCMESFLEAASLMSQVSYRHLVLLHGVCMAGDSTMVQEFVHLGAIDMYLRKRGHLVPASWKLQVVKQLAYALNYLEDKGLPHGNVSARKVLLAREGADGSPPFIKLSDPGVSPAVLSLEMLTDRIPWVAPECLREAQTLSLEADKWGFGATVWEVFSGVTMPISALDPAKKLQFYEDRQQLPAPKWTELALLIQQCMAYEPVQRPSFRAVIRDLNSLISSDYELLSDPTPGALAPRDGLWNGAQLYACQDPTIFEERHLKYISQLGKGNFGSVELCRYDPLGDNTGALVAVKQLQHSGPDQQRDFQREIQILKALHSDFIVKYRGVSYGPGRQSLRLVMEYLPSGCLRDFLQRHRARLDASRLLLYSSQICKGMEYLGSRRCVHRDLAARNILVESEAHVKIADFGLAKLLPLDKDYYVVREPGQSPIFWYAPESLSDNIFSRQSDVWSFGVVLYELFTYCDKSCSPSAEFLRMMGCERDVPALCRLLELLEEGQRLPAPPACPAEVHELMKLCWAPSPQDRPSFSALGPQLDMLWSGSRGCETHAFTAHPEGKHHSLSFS

[2] = target: Tyrosine-protein kinase Blk (Homo sapiens, UniProt P51451); assay: Inhibition of recombinant full length His-tagged human BLK expressed in baculovirus expression system using poly (4:1 Glu, Tyr) as substrate preincubated for 1 hr followed by substrate addition measured after 1 hr by ADP-glo assay
[3] = system: HCT-116; assay: Antiproliferative activity against human HCT116 cells after 72 hrs by CellTiter-Glo assay; format: functional; conditions: HCT-116, 72 h
[4] = system: K562; assay: Antiproliferative activity against human K562 cells after 72 hrs by CellTiter-Glo assay; format: functional; conditions: K562, 72 h
[5] = system: U-937; assay: Antiproliferative activity against human U937 cells after 72 hrs by CellTiter-Glo assay; format: functional; conditions: U-937, 72 h
[6] = Antiproliferative activity against mouse BA/F3 cells after 72 hrs by CellTiter-Glo assay; format: cell-based, BaF3
[7] = system: Pfeiffer; assay: Antiproliferative activity against human Pfeiffer cells after 72 hrs by CellTiter-Glo assay; format: functional
[8] = system: A549; assay: Antiproliferative activity against human A549 cells after 72 hrs by CellTiter-Glo assay; format: functional; conditions: A549, 72 h
[9] = system: Rec1; assay: Antiproliferative activity against human Rec1 cells after 72 hrs by CellTiter-Glo assay; format: functional; conditions: Rec1, 72 h
[10] = system: HeLa; assay: Antiproliferative activity against human HeLa cells after 72 hrs by CellTiter-Glo assay; format: functional
[11] = system: NB-4; assay: Antiproliferative activity against human NB4 cells after 72 hrs by CellTiter-Glo assay; format: functional; conditions: NB-4, 72 h
[12] = target: Tyrosine-protein kinase JAK1 (Homo sapiens) (UniProt P23458); assay: Inhibition of TEL-fused JAK1 (unknown origin) expressed in mouse BA/F3 cells after 72 hrs by CellTiter-Glo assay; format: cell-based
[13] = system: Epidermal growth factor receptor (Homo sapiens), P00533 [L858R,T790M]; assay: Inhibition of TEL-fused EGFR T790M/L858R mutant (unknown origin) expressed in mouse BA/F3 cells after 72 hrs by CellTiter-Glo assay; format: cell-based
[14] = system: SU-DHL-2; assay: Antiproliferative activity against human SUDHL2 cells after 72 hrs by CellTiter-Glo assay; format: functional; conditions: SU-DHL-2, 72 h
[15] = system: HEL; assay: Antiproliferative activity against human HEL cells after 72 hrs by CellTiter-Glo assay; format: functional
[16] = system: NCI-H358; assay: Antiproliferative activity against human NCI-H358 cells after 72 hrs by CellTiter-Glo assay; format: functional; conditions: NCI-H358, 72 h
[17] = target: Tyrosine-protein kinase JAK2 (Homo sapiens) (UniProt O60674); assay: Inhibition of TEL-fused JAK2 (unknown origin) expressed in mouse BA/F3 cells after 72 hrs by CellTiter-Glo assay; format: cell-based
[18] = system: HL-60; assay: Antiproliferative activity against human HL60 cells after 72 hrs by CellTiter-Glo assay; format: functional; conditions: HL-60, 72 h
[19] = system: NOMO-1; assay: Antiproliferative activity against human NOMO1 cells after 72 hrs by CellTiter-Glo assay; format: functional; conditions: NOMO-1, 72 h
[20] = Antiproliferative activity against human MOLM16 cells after 72 hrs by CellTiter-Glo assay; format: functional; conditions: MOLM16, 72 h
[21] = system: A-431; assay: Antiproliferative activity against human A431 cells after 72 hrs by CellTiter-Glo assay; format: functional; conditions: A-431, 72 h
[22] = system: NCI-H460; assay: Antiproliferative activity against human NCI-H460 cells after 72 hrs by CellTiter-Glo assay; format: functional; conditions: NCI-H460, 72 h
[23] = system: NALM-6; assay: Antiproliferative activity against human NALM6 cells after 72 hrs by CellTiter-Glo assay; format: functional; conditions: NALM-6, 72 h
[24] = system: OCI-AML2; assay: Antiproliferative activity against human OCI-AML2 cells after 72 hrs by CellTiter-Glo assay; format: functional; conditions: OCI-AML2, 72 h
[25] = Antiproliferative activity against human PF138 cells after 72 hrs by CellTiter-Glo assay; format: functional
[26] = system: LNCaP C4-2; assay: Antiproliferative activity against human C4-2 cells after 72 hrs by CellTiter-Glo assay; format: functional; conditions: LNCaP C4-2, 72 h
[27] = target: Epidermal growth factor receptor (Homo sapiens) (UniProt P00533); assay: Inhibition of TEL-fused EGFR (unknown origin) expressed in mouse BA/F3 cells after 72 hrs by CellTiter-Glo assay; format: cell-based
[28] = system: OCI-AML-3; assay: Antiproliferative activity against human OCI-AML3 cells after 72 hrs by CellTiter-Glo assay; format: functional; conditions: OCI-AML-3, 72 h
[29] = system: DU-145; assay: Antiproliferative activity against human DU145 cells after 72 hrs by CellTiter-Glo assay; format: functional; conditions: DU-145, 72 h
[30] = system: JVM-2; assay: Antiproliferative activity against human JVM2 cells after 72 hrs by CellTiter-Glo assay; format: functional; conditions: JVM-2, 72 h
[31] = system: NCI-H1975; assay: Antiproliferative activity against human NCI-H1975 cells after 72 hrs by CellTiter-Glo assay; format: functional; conditions: NCI-H1975, 72 h
[32] = system: Z-138; assay: Antiproliferative activity against human Z138 cells after 72 hrs by CellTiter-Glo assay; format: functional; conditions: Z-138, 72 h
[33] = system: NAMALVA; assay: Antiproliferative activity against human NAMALWA cells after 72 hrs by CellTiter-Glo assay; format: functional
[34] = system: U2932; assay: Antiproliferative activity against human U2932 cells after 72 hrs by CellTiter-Glo assay; format: functional; conditions: U2932, 72 h
[35] = system: CMK; assay: Antiproliferative activity against human CMK cells after 72 hrs by CellTiter-Glo assay; format: functional
[36] = Antiproliferative activity against human RV1 cells after 72 hrs by CellTiter-Glo assay; format: functional; conditions: RV-1, 72 h
[37] = system: MOLM-14; assay: Antiproliferative activity against human MOLM14 cells after 72 hrs by CellTiter-Glo assay; format: functional; conditions: MOLM-14, 72 h
[38] = system: MOLM-13; assay: Antiproliferative activity against human MOLM13 cells after 72 hrs by CellTiter-Glo assay; format: functional; conditions: MOLM-13, 72 h
[39] = target: T2, Tyrosine-protein kinase BTK (Homo sapiens, UniProt Q06187); assay: Inhibition of recombinant full length His-tagged human BTK expressed in baculovirus expression system using poly (4:1 Glu, Tyr) as substrate preincubated for 1 hr followed by substrate addition measured after 1 hr by ADP-glo assay
[40] = target: T2, Tyrosine-protein kinase BTK; assay: Irreversible inhibition of recombinant full length His-tagged human BTK expressed in baculovirus expression system using poly (4:1 Glu, Tyr) as substrate assessed as ratio of Kinact to Ki preincubated for 2 to 60 mins followed by substrate addition measured after 1 hr by ADP-glo assay
[41] = target: T2, Tyrosine-protein kinase BTK; assay: Irreversible inhibition of recombinant full length His-tagged human BTK expressed in baculovirus expression system using poly (4:1 Glu, Tyr) as substrate preincubated for 2 to 60 mins followed by substrate addition measured after 1 hr by ADP-glo assay

Chain of Tyrosine-protein kinase Blk (P51451 whole entry): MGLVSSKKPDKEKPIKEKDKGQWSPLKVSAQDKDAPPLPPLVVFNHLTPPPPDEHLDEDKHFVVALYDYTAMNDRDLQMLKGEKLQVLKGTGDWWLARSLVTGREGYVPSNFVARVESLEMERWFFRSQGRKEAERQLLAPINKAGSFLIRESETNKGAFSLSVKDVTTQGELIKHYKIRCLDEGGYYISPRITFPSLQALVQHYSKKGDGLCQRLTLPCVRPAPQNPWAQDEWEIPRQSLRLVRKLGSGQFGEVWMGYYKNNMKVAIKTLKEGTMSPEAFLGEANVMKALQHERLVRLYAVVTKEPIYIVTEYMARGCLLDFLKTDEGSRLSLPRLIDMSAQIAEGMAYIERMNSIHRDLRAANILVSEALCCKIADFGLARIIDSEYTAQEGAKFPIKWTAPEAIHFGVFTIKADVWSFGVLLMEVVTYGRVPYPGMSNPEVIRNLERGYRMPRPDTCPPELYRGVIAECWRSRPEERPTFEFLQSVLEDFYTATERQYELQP
T2 sequence (Q06187 whole entry): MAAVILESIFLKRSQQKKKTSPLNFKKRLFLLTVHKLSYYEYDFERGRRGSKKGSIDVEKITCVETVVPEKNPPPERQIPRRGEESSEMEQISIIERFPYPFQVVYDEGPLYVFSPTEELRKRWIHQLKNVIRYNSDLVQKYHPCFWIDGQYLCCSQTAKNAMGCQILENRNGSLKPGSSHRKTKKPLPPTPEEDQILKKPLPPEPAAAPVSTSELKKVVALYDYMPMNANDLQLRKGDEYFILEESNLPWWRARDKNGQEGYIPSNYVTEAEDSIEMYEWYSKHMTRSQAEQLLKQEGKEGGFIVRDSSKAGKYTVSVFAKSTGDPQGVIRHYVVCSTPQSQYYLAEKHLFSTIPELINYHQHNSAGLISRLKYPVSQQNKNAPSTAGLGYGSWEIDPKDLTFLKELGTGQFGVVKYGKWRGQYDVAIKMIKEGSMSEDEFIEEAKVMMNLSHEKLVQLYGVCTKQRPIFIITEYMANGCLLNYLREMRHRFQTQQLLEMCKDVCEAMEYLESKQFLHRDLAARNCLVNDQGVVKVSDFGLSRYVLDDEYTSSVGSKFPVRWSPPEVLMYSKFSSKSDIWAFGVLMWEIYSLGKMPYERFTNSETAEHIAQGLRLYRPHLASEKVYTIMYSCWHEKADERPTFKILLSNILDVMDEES
Chain of Tyrosine-protein kinase JAK2 (Homo sapiens) (O60674 whole entry, the tested form may be a part): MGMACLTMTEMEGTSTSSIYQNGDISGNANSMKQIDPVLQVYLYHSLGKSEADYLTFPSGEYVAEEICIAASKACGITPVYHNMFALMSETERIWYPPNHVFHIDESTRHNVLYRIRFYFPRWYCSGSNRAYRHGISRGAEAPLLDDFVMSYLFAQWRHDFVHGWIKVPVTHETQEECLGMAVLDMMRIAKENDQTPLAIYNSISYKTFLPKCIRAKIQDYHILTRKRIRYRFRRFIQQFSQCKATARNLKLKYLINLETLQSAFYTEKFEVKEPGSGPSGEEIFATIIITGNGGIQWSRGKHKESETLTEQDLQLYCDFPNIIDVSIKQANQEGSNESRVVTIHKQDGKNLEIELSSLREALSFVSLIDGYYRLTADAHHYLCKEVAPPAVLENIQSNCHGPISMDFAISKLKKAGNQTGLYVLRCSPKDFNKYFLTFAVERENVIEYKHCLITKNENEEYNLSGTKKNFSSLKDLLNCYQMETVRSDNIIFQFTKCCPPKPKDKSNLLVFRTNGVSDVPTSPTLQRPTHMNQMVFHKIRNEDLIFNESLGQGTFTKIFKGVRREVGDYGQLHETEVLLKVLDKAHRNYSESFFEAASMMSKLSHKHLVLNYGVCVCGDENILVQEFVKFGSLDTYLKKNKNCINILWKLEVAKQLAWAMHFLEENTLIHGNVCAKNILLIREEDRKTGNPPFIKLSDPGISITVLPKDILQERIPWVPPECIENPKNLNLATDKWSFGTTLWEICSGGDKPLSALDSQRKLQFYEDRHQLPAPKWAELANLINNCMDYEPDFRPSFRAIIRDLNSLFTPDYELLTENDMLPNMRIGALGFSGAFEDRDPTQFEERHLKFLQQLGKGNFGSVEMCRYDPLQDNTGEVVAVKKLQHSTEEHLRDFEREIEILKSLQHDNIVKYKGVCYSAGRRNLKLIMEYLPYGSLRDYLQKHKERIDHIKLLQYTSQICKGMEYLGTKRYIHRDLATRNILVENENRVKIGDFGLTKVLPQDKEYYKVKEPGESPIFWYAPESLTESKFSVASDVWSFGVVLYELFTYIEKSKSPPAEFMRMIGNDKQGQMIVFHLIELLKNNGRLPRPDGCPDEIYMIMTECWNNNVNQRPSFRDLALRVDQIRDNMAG
Chain of Epidermal growth factor receptor (Homo sapiens), P00533 [L858R,T790M] (P00533 whole entry T790M/L858R, looked up, the tested form may be a part): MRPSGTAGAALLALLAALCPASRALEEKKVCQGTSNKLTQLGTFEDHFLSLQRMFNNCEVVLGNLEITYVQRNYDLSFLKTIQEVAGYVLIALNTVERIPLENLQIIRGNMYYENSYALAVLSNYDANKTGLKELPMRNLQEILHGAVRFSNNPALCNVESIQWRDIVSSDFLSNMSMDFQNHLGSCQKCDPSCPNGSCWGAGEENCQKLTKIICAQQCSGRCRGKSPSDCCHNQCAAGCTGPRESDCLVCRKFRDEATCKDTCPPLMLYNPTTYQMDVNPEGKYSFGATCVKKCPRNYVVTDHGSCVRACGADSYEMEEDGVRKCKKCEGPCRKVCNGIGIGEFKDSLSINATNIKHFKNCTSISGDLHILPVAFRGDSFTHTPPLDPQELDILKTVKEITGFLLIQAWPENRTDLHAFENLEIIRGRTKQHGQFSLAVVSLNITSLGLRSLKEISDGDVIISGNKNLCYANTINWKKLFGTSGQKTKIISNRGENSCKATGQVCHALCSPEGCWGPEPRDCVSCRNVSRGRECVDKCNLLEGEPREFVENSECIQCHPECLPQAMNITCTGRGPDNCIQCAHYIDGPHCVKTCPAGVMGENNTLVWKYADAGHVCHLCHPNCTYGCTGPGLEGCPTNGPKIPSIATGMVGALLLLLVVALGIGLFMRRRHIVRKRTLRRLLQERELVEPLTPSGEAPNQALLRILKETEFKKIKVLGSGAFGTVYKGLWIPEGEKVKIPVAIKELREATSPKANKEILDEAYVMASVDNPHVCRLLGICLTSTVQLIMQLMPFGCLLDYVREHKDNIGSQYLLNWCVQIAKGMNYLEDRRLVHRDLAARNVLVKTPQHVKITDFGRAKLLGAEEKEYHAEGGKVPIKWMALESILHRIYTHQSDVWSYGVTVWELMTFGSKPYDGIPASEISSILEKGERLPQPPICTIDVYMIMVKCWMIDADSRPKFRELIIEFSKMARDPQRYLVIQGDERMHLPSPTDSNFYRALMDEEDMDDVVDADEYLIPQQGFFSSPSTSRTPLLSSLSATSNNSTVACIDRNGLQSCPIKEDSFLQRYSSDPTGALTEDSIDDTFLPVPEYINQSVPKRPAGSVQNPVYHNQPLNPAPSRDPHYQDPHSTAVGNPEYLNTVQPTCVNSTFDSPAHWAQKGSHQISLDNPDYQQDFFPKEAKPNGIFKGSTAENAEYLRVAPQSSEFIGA
Chain of Epidermal growth factor receptor (Homo sapiens) (P00533 whole entry, the tested form may be a part): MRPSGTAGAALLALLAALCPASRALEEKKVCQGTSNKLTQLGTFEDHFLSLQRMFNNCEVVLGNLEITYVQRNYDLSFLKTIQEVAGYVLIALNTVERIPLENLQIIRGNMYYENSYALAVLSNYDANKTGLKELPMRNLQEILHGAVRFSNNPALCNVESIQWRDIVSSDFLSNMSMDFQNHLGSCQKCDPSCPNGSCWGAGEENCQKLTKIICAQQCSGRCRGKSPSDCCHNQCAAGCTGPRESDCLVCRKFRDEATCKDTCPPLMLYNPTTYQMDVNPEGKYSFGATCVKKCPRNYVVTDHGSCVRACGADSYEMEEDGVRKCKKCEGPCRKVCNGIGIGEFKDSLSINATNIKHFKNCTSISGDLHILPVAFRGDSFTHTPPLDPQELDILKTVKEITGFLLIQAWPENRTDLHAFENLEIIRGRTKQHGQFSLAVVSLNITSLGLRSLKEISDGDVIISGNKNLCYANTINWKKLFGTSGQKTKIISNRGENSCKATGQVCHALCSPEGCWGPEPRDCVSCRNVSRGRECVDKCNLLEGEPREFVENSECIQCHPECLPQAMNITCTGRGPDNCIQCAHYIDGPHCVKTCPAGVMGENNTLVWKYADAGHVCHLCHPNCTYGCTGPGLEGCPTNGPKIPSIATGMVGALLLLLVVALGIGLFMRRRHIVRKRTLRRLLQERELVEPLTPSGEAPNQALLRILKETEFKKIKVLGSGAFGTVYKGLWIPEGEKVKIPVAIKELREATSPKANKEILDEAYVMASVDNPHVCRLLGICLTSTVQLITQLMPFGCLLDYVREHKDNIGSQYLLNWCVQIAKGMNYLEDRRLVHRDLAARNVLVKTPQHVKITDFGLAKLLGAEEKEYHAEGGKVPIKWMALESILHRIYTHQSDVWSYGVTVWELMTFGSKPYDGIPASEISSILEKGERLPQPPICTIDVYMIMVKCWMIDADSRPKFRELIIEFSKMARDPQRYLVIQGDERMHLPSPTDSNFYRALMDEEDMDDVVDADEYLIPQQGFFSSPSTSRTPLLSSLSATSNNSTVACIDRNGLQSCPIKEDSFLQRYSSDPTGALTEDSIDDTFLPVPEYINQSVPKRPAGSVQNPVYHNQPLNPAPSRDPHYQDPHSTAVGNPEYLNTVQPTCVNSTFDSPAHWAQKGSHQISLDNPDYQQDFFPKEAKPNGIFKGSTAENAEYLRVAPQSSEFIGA

C=CC(=O)Nc1cc(-n2c(=O)ccc3cnc4ccc(/C=C/c5ccccc5)cc4c32)ccc1C
IC50 [1]: 5.58 µM
IC50 [2]: 0.607 µM

C=CC(=O)N1CCc2ccc(-n3c(=O)ccc4cnc5ccc(-c6ccc(S(=O)(=O)NC(C)(C)C)cc6)cc5c43)cc21
IC50 [1]: > 10 µM
IC50 [2]: 0.0836 µM

C=CC(=O)Nc1cc(-n2c(=O)ccc3cnc4ccc(-c5ccc(N)nc5)cc4c32)ccc1C
IC50 [1]: 0.177 µM
IC50 [2]: 0.177 µM

C=CC(=O)N1CCC[C@@H](n2nc(-c3ccc(Oc4ccccc4)cc3)c3c(N)ncnc32)C1 [IBRUTINIB]
GI50 [3]: > 10 µM
GI50 [4]: > 10 µM
GI50 [5]: 8.5 µM
GI50 at 72 h [6]: > 10 µM
GI50 [7]: 8.4 µM
GI50 [8]: > 10 µM
GI50 [9]: > 10 µM
GI50 [10]: > 10 µM
GI50 [11]: 7.5 µM
GI50 [12]: 8.93 µM
GI50 [13]: 2.76 µM
GI50 [14]: 2.2 µM
GI50 [15]: 4 µM
GI50 [16]: > 10 µM
GI50 [17]: 9.02 µM
GI50 [18]: 3.5 µM
GI50 [19]: > 10 µM
GI50 [20]: 4.4 µM
GI50 [21]: > 10 µM
GI50 [22]: > 10 µM
GI50 [23]: > 10 µM
GI50 [24]: > 10 µM
GI50 [25]: 8.2 µM
GI50 [26]: > 10 µM
GI50 [27]: > 10 µM
GI50 [28]: > 10 µM
GI50 [29]: > 10 µM
GI50 [30]: > 10 µM
GI50 [31]: 1.2 µM
GI50 [32]: > 10 µM
GI50 [33]: 6 µM
GI50 [34]: 4 µM
GI50 [35]: > 10 µM
GI50 [36]: > 10 µM
GI50 [37]: 1.8 µM
GI50 [38]: 1.3 µM

C=CC(=O)Nc1cc(-n2c(=O)ccc3cnc4ccc(-c5ccoc5)cc4c32)ccc1C
IC50 [1]: 0.0174 µM
IC50 [2]: 2.09 µM

C=CC(=O)Nc1cc(-n2c(=O)ccc3cnc4ccc(-c5cnn(C)c5)cc4c32)ccc1C
IC50 [1]: 0.343 µM
IC50 [2]: 0.339 µM

C=CC(=O)N1CCc2ccc(-n3c(=O)ccc4cnc5ccc(-c6cnc7ccccc7c6)cc5c43)cc21
IC50 [1]: 0.983 µM
IC50 [2]: 0.191 µM
IC50 [39]: 0.00715 µM

C=CC(=O)Nc1cc(-n2c(=O)ccc3cnc4ccc(-c5ccccc5)cc4c32)ccc1C
IC50 [1]: 0.0253 µM

C=CC(=O)Nc1cccc(-n2c(=O)ccc3cnc4ccc(-c5cn[nH]c5)cc4c32)c1
IC50 [1]: 0.224 µM
IC50 [2]: 0.293 µM

C=CC(=O)Nc1cc(-n2c(=O)ccc3cnc4ccc(-c5ccc(COc6cccc(C(F)(F)F)c6)cc5)cc4c32)ccc1C
IC50 [1]: 0.65 µM
IC50 [2]: 2.06 µM

C=CC(=O)Nc1cc(-n2c(=O)ccc3cnc4ccc(-c5ccsc5)cc4c32)ccc1C
IC50 [1]: 0.0386 µM
IC50 [2]: 0.342 µM

C=CC(=O)N1CCc2ccc(-n3c(=O)ccc4cnc5ccc(-c6ccc(N7CCN(C)CC7)cc6)cc5c43)cc21
IC50 [1]: 1.56 µM
IC50 [2]: > 10 µM

C=CC(=O)Nc1cc(-n2c(=O)ccc3cnc4ccc(-c5cn[nH]c5)cc4c32)ccc1C
Ratio [40]: 1.17 µM⁻¹ s⁻¹
Ki [41]: 0.002 µM
Kinact [41]: 0.14 min⁻¹

C=CC(=O)Nc1cccc(-n2c(=O)ccc3cnc4ccc(-c5ccc(N)nc5)cc4c32)c1
IC50 [1]: 0.654 µM
IC50 [2]: 0.336 µM

C=CC(=O)Nc1cc(-n2c(=O)ccc3cnc4ccc(-c5cnc6ccccc6c5)cc4c32)ccc1C
IC50 [1]: 0.983 µM
IC50 [2]: 0.295 µM

C=CC(=O)Nc1cc(-n2c(=O)ccc3cnc4ccc(-c5ccc6c(c5)OCCO6)cc4c32)ccc1C
IC50 [1]: 0.192 µM
IC50 [2]: 0.16 µM

C=CC(=O)Nc1cc(-n2c(=O)ccc3cnc4ccc(-c5ccc(NC(=O)NC)cc5)cc4c32)ccc1C
IC50 [1]: 0.218 µM
IC50 [2]: 1.13 µM
IC50 [39]: 0.0791 µM
